# Test results published in patent US20200093123A1, “INSECTICIDAL EMULSION” (EVOLVA SA, priority 2016, published 2020).
# Like-named read-outs stand apart in the source and are kept apart here.
# Experiments:
# [1] = test system: Aedes aegypti adult female mosquitoes; assay: Arm over cage contact repellency, geraniol/co-solvent formulations (Example 18); format: in vivo; settings: about 0.3 mL on collagen membrane aged one hour; 5 minute count; average of 4 replicates
# Method: Twenty five Aedes aegypti adult female mosquitoes were introduced into a 1 ft×1 ft×1 ft cage. The mosquitoes were starved for at least 2 hours before repellency testing. The test formulation or control substance (see “Treatments”) was applied at a rate of approximately 0.3 mL onto a dampened collagen membrane (2.5 inches by 6 inches) to mimic the effect of skin, and the membrane was allowed to age for one hour while resting on a damp cloth. An untreated, dampened collagen membrane was placed on a mesh opening at the top of the test cage, and a researcher's arm was suspended -1/4 inch above the membrane to act as an attractant. The numbers of landings and probings of the untreated membrane were counted during a 5 minute period, and these counts were used as the baseline level of activity for that specific replicate of mosquitoes. Immediately after the baseline count, an aged, treated membrane was placed on top of the cage, and the numbers of landings and probings of the treated membrane were counted during a 5 minute period for the same replicate of mosquitoes. […] Repellency was calculated as one minus the ratio of the average number of probings or landings using the treated membrane divided by the average number of probings or landings using the untreated membrane from the same cages over the same four replicates of mosquitoes. […]
# [2] = test system: common malaria mosquitoes (Anopheles quadrimaculatus); assay: Nootkatone residue on filter paper (Example 13); format: in vivo; settings: 24 h
# Method: (§1) Method: Nootkatone was solubilized in ethanol to a concentration of 1% w/v. The nootkatone solution, or solvent (ethanol) alone as a negative control, was applied directly to filter paper using a micropipette, in an amount of 1 mL for a 9 cm filter paper disc. Filter papers were allowed to dry completely before being cut to the appropriate size prior to the start of the test. Treated and untreated filter papers were cut so that they covered the bottom of a suitable container for each test species (see Table No. 4, below). At each observation period, arthropods were classified as alive, knocked down (KD) or dead.
# (§2) Observation Methods: • a. […] Definitions of “Alive”, “Knockdown (KD)”, and “Dead” are as defined above.
# [3] = test system: Asian tiger mosquitoes (Aedes albopictus); assay: Nootkatone residue on filter paper (Example 13); format: in vivo; settings: 24 h
# Method: as §1, §2
# [4] = test system: southern house mosquitoes (Culex quinquefasciatus); assay: Nootkatone residue on filter paper (Example 13); format: in vivo; settings: 24 h
# Method: as §1, §2
# [5] = test system: deer ticks; assay: Nootkatone residue on filter paper (Example 13); format: in vivo, deer tick; settings: 1% w/v nootkatone in ethanol dried on filter paper; at 72 hours
# Method: as §1, §2
# [6] = test system: biting midges; assay: Nootkatone residue on filter paper (Example 13); format: in vivo, biting midge; settings: 1% w/v nootkatone in ethanol dried on filter paper; mortality reached at 24 hours
# Method: as §1, §2
# [7] = test system: Aedes aegypti larvae; assay: Duration of larvicidal protection in treated water (Example 7); format: in vivo; settings: 0.03% nootkatone/1% ethanol in water; larvae added 3-7 days after the water was treated; within 24 hours
# [8] = test system: mosquito pupae; assay: Prevention of adult emergence from pupae (Example 9, previous testing); format: in vivo, Aedes aegypti or Anopheles quadrimaculatus; settings: 0.015% nootkatone/0.5% ethanol (v/v) in water for 48 hours
# Excerpt: Pupae preparation. Eggs of Aedes aegypti or Anopheles quadrimaculatus were purchased from a commercial supplier. They were hatched in sterile MilliQ water and fed with finely ground TetraMin® fish food (fish meal, dried yeast, ground brown rice, shrimp meal, wheat gluten, feeding oat meal, fish oil, potato protein, dehulled soybean meal, soybean oil, algae meal, sorbitol, lecithin, monobasic calcium phosphate, ascorbic acid, yeast extract, inositol, niacin, L-ascorbyl-2-polyphosphate, riboflavin-5-phosphate, α-tocopherol-acetate, d-calcium pantothenate, thiamine mononitrate, pyridoxine hydrochloride, vitamin A palmitate, menadione sodium bisulfite complex, biotin, vitamin B12 supplement, cholcalciferol, manganese sulfate monohydrate, zinc sulfate monohydrate, ferrous sulfate monohydrate, cobalt acetate) until they developed into pupae.
# Pupae experiments. Clean, glass 600 mL beakers were washed and thoroughly rinsed prior to use as test containers. On each of four testing days, pupae were removed from dishes used to grow larvae. Replicates of 10 pupae each were randomly assigned to glass beakers in a volume of 100 mL of sterile MilliQ water, and a treatment (see “Treatments” below) is added. The beakers are then covered lightly with Kimwipes® and secured by rubber bands to prevent escape of adults. […]
# Treatments. […]
# [9] = test system: termites; assay: Nootkatone residue on filter paper (Example 13); format: in vivo, termite; settings: 1% w/v nootkatone in ethanol dried on filter paper; at 72 hours
# Method: as §1, §2
# [10] = test system: fire ants; assay: Nootkatone residue on filter paper (Example 13); format: in vivo, fire ant
# Method: as §1, §2
# [11] = test system: Anopheles gambiae Kisumu strain adults; format: in vivo
# Method: (§3) Method: Nootkatone was solubilized in acetone to a concentration of 1%, 0.607%, 0.368%, 0.224%, 0.136%, 0.082%, and 0.05%. 0.5 mL of solution was dispensed into a 5 cm diameter glass Petri dish for each replicate to be tested, using a fume hood and appropriate personal protective equipment. Liquid was dispensed to ensure that the entire base of the dish was covered with solution. Dishes were transferred to an orbital shaker set at a speed of 200 revolutions per minute. The dishes were shaken for 15 minutes to ensure even distribution on the surface of the plate. Control dishes were prepared in the same way using 0.5 mL of acetone without nootkatone. Dishes were allowed to dry for 4 hours before use. Dishes were stored at 4° C. until use. Groups of 10 adult female mosquitoes, 2-5 days old, were gently aspirated into a transfer pot system, and were then gently tapped out onto the surface of the treated or control Petri dishes. Although attempts are made to have groups of exactly 10 mosquitoes, group size could vary. Groups of more than 15 mosquitoes were excluded from testing, due to overcrowding. The opening to the dishes through which the mosquitoes were introduced was covered with parafilm to prevent escape. After 30 minutes of exposure to the Petri dishes, mosquitoes were transferred to paper cups for additional observation. They were supplied with 10% sucrose solution ad libitum. Three replicates, or 30 total adult female mosquitoes were tested for each concentration of nootkatone in acetone, and for the acetone-only controls. The mosquitoes tested were either the Aedes aegypti New Orleans strain, or Anopheles gambiae Kisumu strain.
# as §2
# [12] = test system: Aedes aegypti New Orleans strain adults; format: in vivo
# Method: as §3, §2
# [13] = test system: aphids; assay: Nootkatone residue on filter paper (Example 13); format: in vivo, aphid; settings: 1% w/v nootkatone in ethanol dried on filter paper; mortality reached at 24 hours
# Method: as §1, §2
# [14] = test system: yellow fever mosquitoes (Aedes aegypti) adults; assay: whole plant or invertebrate; format: in vivo; settings: 1% w/v nootkatone in ethanol dried on filter paper, mortality reached at 24 hours
# Method: as §1, §2
# [15] = test system: mosquito pupae; assay: Mosquito pupae killing (Example 8, previous testing); format: in vivo, Aedes aegypti or Anopheles quadrimaculatus; settings: 0.03% nootkatone/1% ethanol; within 24 hours
# Method: Pupae preparation. Eggs of Aedes aegypti or Anopheles quadrimaculatus were purchased from a commercial supplier. Eggs were hatched in sterile MilliQ water and fed with finely ground Tetramin® fish food until they developed into pupae.
# Pupae experiments. Clean, glass 600 mL beakers were washed and thoroughly rinsed prior to use as test containers. On testing days, pupae were removed from dishes used to grow larvae. Replicates of 10 pupae each were randomly assigned to glass beakers in a volume of 100 mL of sterile MilliQ water, and a treatment (see “Treatments” below) is added. A minimum of three control replicates and 4 treated replicates were tested on more than one day. The beakers were then covered lightly with Kimwipes®, secured by rubber bands to prevent escape of adults. The beakers were observed after 24 hours, and the numbers of live pupae, dead pupae, live adults, and dead adults were recorded.
# Treatments. An aliquot of 0.5-1 mL of formulations such as those used in Example 1 was added to each test beaker. Control beakers consist of 100 mL of sterile MilliQ water.
# [16] = partially soluble in water; cited from earlier work
# [17] = rats; cited from earlier work
smiles,measurement,setting,value
"CCN(CC)C(=O)c1cccc(C)c1 [20% DEET in ethanol, N,N-Diethyl-meta-toluamide]",repellency against landings,[1],98%
same,repellency against probings (bites),[1],100%
C=C(C)[C@@H]1CCC2=CC(=O)C[C@@H](C)[C@]2(C)C1 [nootkatone],mortality at 1 % strength,[2],98%
same,mortality at 1 % strength,[3],98%
same,mortality at 1 % strength,[4],98%
same,Mortality %,[5],98%
same,Mortality %,[6],100%
same,larvae killed,[7],100%
same,surviving adults eclosed from pupae,[8],no surviving adults
same,Mortality %,[9],90%
same,killed,"[10]; 1% nootkatone dried on filter paper, within 24 hours",100%
same,Mortality %,"[10]; 1% w/v nootkatone in ethanol dried on filter paper, at 72 hours (table, no asterisk)",100%
same,adults killed,"[11]; residue of 0.082% nootkatone, 24 hours after treatment",50%
same,adults knocked down,"[11]; residue of 0.5 mL 0.082% nootkatone in acetone on 5 cm glass dish, within 30 minutes",41%
same,mortality,"[11]; residue of 0.607% nootkatone, 24 hours after treatment",100%
same,mortality,"[11]; residue of 1% nootkatone, 24 hours after treatment",100%
same,adults knocked down,"[12]; residue of 0.5 mL 0.136% nootkatone in acetone on 5 cm glass dish, within 30 minutes",47%
same,mortality,"[12]; residue of 1% nootkatone in acetone, 30 minutes exposure, 24 hours after treatment",89%
same,nootkatone concentration required to obtain significant mortality,"[12]; residue on glass dish, 30 minutes exposure, 24 hours after treatment",0.224%
same,Mortality %,[13],94%
same,mortality at 1 % strength,[14],100%
same,"pupae died, average",[15],94%
same,"pupae died, one experiment",[15],93%
same,"pupae died, second day of testing",[15],95%
OCc1ccccc1 [benzyl alcohol],solubility in water,[16],4 g/100 ml
same,LD50,[17],1200 mg/kg
